Measurements as given in article PMC5635289, “Differential Effects of Angelicin Analogues on NF-κB Activity and IL-8 Gene Expression in Cystic Fibrosis IB3-1 Cells” (Mediators of Inflammation, 2017).

Assays:
[1] = system: IL-8 mRNA; experiment: RT-qPCR quantification of IL-8 mRNA in TNF-α-induced IB3-1 cells; assay type: cell-based, human; settings: Homo sapiens, IB3-1, 24 h, TNF-α-induced IB3-1 cells, RT-qPCR, na = not active at the used concentrations
Experimental: Monolayers of 60% confluent IB3-1 cells were seeded in 6- or 12-well plates in LHC-8 medium in the presence of 5% FBS. After 24 h, pure derivatives were added, 5 h before stimulation with TNF-α 80 ng/ml (ORF Genetics, Kopavogur, Iceland), and incubated for a further 24 h. Total RNA was extracted using TRIzol Reagent (Sigma-Aldrich, St. Louis, MO) following the manufacturer's instructions. Reverse transcription (RT) was performed using Reverse Transcription System kit (Promega, Madison, WI): 1 μg of total RNA was reverse transcribed in the presence of 5 mM MgCl2, 1X reverse transcription buffer (10 mM Tris-HCl, 50 mM KCl, and 0.1% Triton X-100), 1 mM each dNTPs, 20 U recombinant Rnasin Ribonuclease Inhibitor, 15 U AMV Reverse Transcriptase, and 0.5 μg oligo(dT)15 primers in a total volume of 20 μl for 10 min at 70°C and 60 min at 42°C. The resulting cDNA was quantified by relative quantitative real-time PCR (real-time qPCR). For real-time qPCR, 1 μl of cDNA was used for each SYBR Green reaction to quantify the relative expression of IL-8. Each 25 μl of total reaction volume contained 1 μl of cDNA, 10 pmol of primers, 1 iQTM SYBR Green Supermix (Bio-Rad Laboratories Inc., Hercules, CA). Real-time PCRs were performed for a total of 40 cycles (denaturation, 95°C for 10 s; annealing, 68°C for 30 s for IL-8, 65°C for 30 s for IL-6; elongation, 72°C for 60 s) using an iCycler IQ5 (Bio-Rad Laboratories Inc., Hercules, CA). Primer sequences were as follows: IL-8 forward: 5′-GTGCAGTTTTGCCAAGGAGT-3′ and IL-8 reverse: 5′-TTATGAATTCTCAGCCCTCTTCAAAAACTTCTC-3′. The relative proportions of each amplified template were determined utilizing the threshold cycle (CT) value for each performed PCR. The DDCt method was used to compare gene expression data. Each sample was quantified in duplicate. Changes in mRNA expression level were calculated following normalization with the GAPDH calibrator gene (housekeeping gene) and expressed as fold change over untreated samples [24]. Duplicates of negative controls (no template cDNA) were also run with every experimental plate to assess specificity and indicate potential contamination.
With the aim to study the effective anti-inflammatory properties of these new psoralen derivatives, we decided to further characterize the TMA derivatives for their potential activities on the expression of IL-8 gene, known to be involved in the lung inflammatory process in CF. […] More specifically, we were first interested in identifying compounds with low antiproliferative activity, but effective in downmodulating inflammatory gene expression without achieving a full suppression of these genes. We therefore employed IB3-1 cystic fibrosis cells, incubated for 5 h with two concentrations (1 μM and 10 μM) of selected compounds, and then treated with TNF-α ([…]). In the IB3-1 cystic fibrosis cellular model, NF-κB-dependent genes, including the gene encoding for the proinflammatory protein IL-8, generally are activated following infection with P. aeruginosa or treatment with TNF-α or IL-1β [26, 28, 31]. This feature is very important in the pathophysiology of CF, since several clinical complications are caused by exacerbation of this inflammatory response. After 1 day of incubation, cellular RNA was isolated for RT-qPCR analysis. All the TMA analogues found to be active in inhibiting NF-κB/DNA interactions were analyzed for their effects on inhibition of TNF-α-induced accumulation of IL-8 mRNA.

[2] = system: IP-10; experiment: Bioplex analysis of IP-10 secretion in TNF-α-induced IB3-1 cells; assay type: cell-based, human; settings: 1 μM, TNF-α-stimulated IB3-1 cells, three independent experiments
Experimental: The Bioplex cytokine assay is designed for the multiplexed quantitative measurement of multiple cytokines in a single well using as little as 50 μl of sample. In our experiments, the premixed multiplex beads (27-plex) of the Bioplex human cytokines were used. 50 μl of cytokine standards or samples (supernatants recovered from treated cells and diluted to 2 μg/μl) were incubated with 50 μl of anticytokine conjugated beads in 96-well filter plates for 30 min at room temperature with shaking. Plates were washed by vacuum filtration three times with 100 μl of Bioplex wash buffer, 25 μl of diluted detection antibody were added, and plates were incubated for 30 min at room temperature with shaking. After three filter washes, 50 μl of streptavidin-phycoerythrin were added, and the plates were incubated for 10 min at room temperature with shaking. Finally, plates were washed by vacuum filtration three times, beads were suspended in Bioplex assay buffer, and samples were analyzed on a Bio-Rad 96-well plate reader using the Bioplex Suspension Array System and Bioplex Manager software (Bio-Rad Laboratories Inc., Hercules, CA).
In order to verify the effects on the secretion of IL-8 by IB3-1 cells, Luminex technology was employed to detect and quantify proteins secreted into the medium. […]

## Cc1oc2c(C)cc3c(C)cc(=O)oc3c2c1C [Compound 1]
[1]; 1 μM compound
  inhibition at 1 µM: 57%
[1]; 10 μM compound
  inhibition at 10 µM: 56%
[2]
  Increase of TNF-α-inducible IP-10: more than twofold
